# Reference: patent US20150238487A1, “NOVEL ERGOLINE DERIVATIVES AND USES THEREOF” (MAP Pharmaceuticals, Inc., priority 2012, published 2015)
# pIC50: −log10 of the molar value.
# Assays:
# Adrenergic α1D = molecular target: T1, Adrenergic α1D (Homo sapiens, UniProt P25100); assay: Aequorin assay, Adrenergic α1D; type: cell-based; conditions: antagonism, CHO-K1 mAeq, read-out: Activity (Antagonism: IC50), Adrenergic a1D
# T1 construct: expressed in transfected cells; host or cells: CHO-K1 mAeq
# Protocol: Receptor […] activity assays were performed using 8′OH-2-CF3-dihydroergotamine (8′OH-2-CF3-DHE). Table 1 summarizes the cell lines (CHO-K1/HEK293 transfected with relevant human receptor) and the assays performed to detect any agonist or antagonist activity.
# Aequorin assays were conducted to monitor activity for 8′OH-2CF3-dihydroergotamine (8′OH-2CF3-DHE) against the receptors indicated in Table 1 above (except for mGlu3 and mGlu5). CHO-K1 cells coexpressing mitochondrial apoaequorin and the recombinant human receptor of interest were grown to mid-log phase in culture media without antibiotics and then detached with PBS-EDTA, centrifuged and resuspended in assay buffer (DMEM/HAM's F12 with HEPES, without phenol red+0.1% BSA, protease free) at a concentration of 1×10^6 cell/mL. […]
# 50 μL of the cell suspension was mixed with 50 μL of test or reference agonist in a 96-well plate. The resulting emission of light was recorded using Hamamatsu Functional Drug Screening System 6000 (FDSS 6000) luminometer. […]
# To standardize the emission of recorded light (and determine of the “100% signal”) across plates and across different experiments, some wells contained 100 μM digitonin or a saturating concentration of ATP (20 μM).
# [1] = test system: NMDA (NR1/NR2A/NR2B/NR2C/NR2D); assay: NMDA receptor channel Fluo-8 calcium FLIPR assay; type: cell-based, human; conditions: HEK293, Fluo-8 calcium FLIPR, agonist and antagonist assessment
# Protocol: Studies for NMDA receptors, NR1, NR2A, NR2B, NR2C, NR2D receptor, were conducted to monitor receptor activity for 8′OH-2CF3-dihydroergotamine (8′OH-2CF3-DHE) using the Fluo-8 calcium kit and a Fluorescence Imaging Plate Reader (FLIPR^TETRA™) instrument. The following channels were evaluated: Cloned NMDA receptor (NR1/NR2A) channel (encoded by the GRIN1 and GRIN2A genes, coexpressed in HEK293 cells; Cloned NMDA receptor (NR1/NR2B) channel (encoded by the GRIN1 and GRIN2B genes, coexpressed in HEK293 cells; Cloned NMDA receptor (NR1/NR2C) channel (encoded by the GRIN1 and GRIN2C genes, coexpressed in HEK293 cells; and Cloned NMDA receptor (NR1/NR2D) channel (encoded by the GRIN1 and GRIN2D genes, transiently coexpressed in HEK293 cells.
# For the agonist assessment, the effect of 8′OH-2CF3-DHE was evaluated in the absence of the positive control agonist. The signal, elicited in the presence of the agonist (100 μM Glutamic acid+20 μM Glycine), was set to 100% activation and the signal in the presence of the vehicle control (Mg^2+-free HB-PS) was set to 0% activation.
# For the antagonist assessment, NR1/NR2A and NR1/NR2B was activated with the positive control agonist (100 μM Glutamic acid+20 μM Glycine). The ability of 8′OH-2CF3-DHE to inhibit the signal was examined after agonist stimulation and compared to the positive control antagonist (MK-801). […]
# T1 sequence (P25100 whole entry): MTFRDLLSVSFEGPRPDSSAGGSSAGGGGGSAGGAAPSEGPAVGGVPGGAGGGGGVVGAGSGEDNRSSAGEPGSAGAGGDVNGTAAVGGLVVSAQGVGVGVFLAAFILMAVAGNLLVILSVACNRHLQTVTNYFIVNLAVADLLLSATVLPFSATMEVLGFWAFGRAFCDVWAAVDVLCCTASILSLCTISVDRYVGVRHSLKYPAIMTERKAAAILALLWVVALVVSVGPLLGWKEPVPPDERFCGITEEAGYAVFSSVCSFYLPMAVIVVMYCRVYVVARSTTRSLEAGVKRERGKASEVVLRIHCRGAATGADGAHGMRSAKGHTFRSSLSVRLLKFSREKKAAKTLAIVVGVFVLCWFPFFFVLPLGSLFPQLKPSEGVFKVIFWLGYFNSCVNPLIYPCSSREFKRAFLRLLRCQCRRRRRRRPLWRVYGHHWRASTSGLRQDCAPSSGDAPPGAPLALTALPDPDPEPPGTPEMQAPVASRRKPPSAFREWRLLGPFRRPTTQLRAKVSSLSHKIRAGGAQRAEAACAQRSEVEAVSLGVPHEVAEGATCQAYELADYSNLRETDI
smiles,measurement,setting,value
"CN1C[C@H](C(=O)N[C@]2(C)O[C@@]3(O)[C@@H]4CC[C@@H](O)N4C(=O)[C@H](Cc4ccccc4)N3C2=O)C[C@@H]2c3cccc4[nH]c(C(F)(F)F)c(c34)C[C@H]21 [8′OH-2-CF3-DHE, 8′-Hydroxy-2-CF3-dihydroergotamine]",pIC50,Adrenergic α1D,8.02
same,"Activity (Agonism: EC50; Antagonism: IC50), NMDA (NR1/NR2A/NR2B/NR2C/NR2D)",[1],Inactive
